Source: PMC7419507, “In vitro Cas9-assisted editing of modular polyketide synthase genes to produce desired natural product derivatives” (Nature Communications, 2020)
Several values for one entry are separate records, joined by “and”; a condition that tells them apart may be missing. Equal entries are not always repeated.

Key:
[1] = Cytotoxicity assay (CellTiter-Glo, 72 h), SKOV-3; assay type: cell-based, human; conditions: human
Procedure, shortened: (§1)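 Cells were seeded at 1000 cells/well and allowed 4 h at 37 °C, 5% CO2 before 2-fold compound dilutions in DMSO were added (0.5% final DMSO). After 72 h exposure, viability was read by CellTiter-Glo luminescence.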

[2] = test system: human ovarian adenocarcinoma SKOV-3 cells; experiment: Cytotoxicity assay (CellTiter-Glo, 72 h), SKOV-3; assay type: cell-based; conditions: raw replicate data
Procedure, shortened: as §1

[3] = target: T1, FKBP12 and mTOR (Homo sapiens, UniProt P42345+P62942); experiment: Fluoppi analysis: induction of FKBP12-mTOR complex formation in transfected HeLa cells; assay type: cell-based; conditions: raw data, one replicate per line
T1 construct: host or cells: HeLa cells
T1 sequence (P42345 2025-2114 limits assumed): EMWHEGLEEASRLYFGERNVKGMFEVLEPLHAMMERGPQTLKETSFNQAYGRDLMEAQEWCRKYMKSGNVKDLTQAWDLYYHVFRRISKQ
T1 sequence (P62942 whole entry): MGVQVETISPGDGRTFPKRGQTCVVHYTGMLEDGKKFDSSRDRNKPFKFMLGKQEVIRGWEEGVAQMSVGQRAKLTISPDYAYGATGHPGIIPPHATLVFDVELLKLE
Procedure, shortened: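 Complex formation read as fluorescent foci: foci intensity over total per-cell intensity, imaged (×20, 9 fields/well) after fixation and Hoechst stain, giving EC50. Cells: HeLa transiently expressing hAG-mTOR and Ash-FKBP12, exposed to compound concentrations for 1 h at 37 °C.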

Foci intensity ([3]; conc 9.53674e-5 uM): 0.01161 and 0.0103 and 0.03088 | Foci intensity ([3]; conc 0.000190735 uM): 0.00895 and 0.02271 and 0.02107 | Foci intensity ([3]; conc 0.00038147 uM): 0.01544 and 0.008548 and 0.02969 | Foci intensity ([3]; conc 0.000762939 uM): 0.009653 and 0.01526 and 0.05621 | Foci intensity ([3]; conc 0.00152588 uM): 0.01804 and 0.005306 and 0.005698 | Foci intensity ([3]; conc 0.00305176 uM): 0.0369 and 0.03402 and 0.3176 | Foci intensity ([3]; conc 0.00610352 uM): 0.06499 and 0.06076 and 0.02459 | Foci intensity ([3]; conc 0.012207 uM): 0.2364 and 0.2753 and 0.5339 | Foci intensity ([3]; conc 0.0244141 uM): 0.345 and 0.3003 and 0.3827 | Foci intensity ([3]; conc 0.0488281 uM): 0.3632 and 0.2888 and 0.4741
SMILES: CO[C@H]1C[C@@H]2CC[C@@H](C)[C@@](O)(O2)C(=O)C(=O)N2CCCC[C@H]2C(=O)O[C@H]([C@H](C)C[C@@H]2CC[C@@H](O)[C@H](OC)C2)CC(=O)[C@H](C)/C=C(\C)[C@@H](O)[C@@H](OC)C(=O)[C@H](C)C[C@H](C)/C=C/C=C/C=C/1C [Compound 1, rapamycin, reference compound]
viability at 72 h ([1]; SKOV-3 cells (ovarian adenocarcinoma), SKOV-3 cells, 72 h, read-out: Plateau level of cell viability in the dose-response curve): ~60% | viability at 72 h, 9.53674e-05 uM ([1]; SKOV-3 cells (ovarian adenocarcinoma), conc 9.53674e-5 uM, raw replicate data, read-out: SKOV3 viability (%)): 78.7% | viability at 72 h, 0.000190735 uM ([1]; SKOV-3 cells (ovarian adenocarcinoma), conc 0.000190735 uM, raw replicate data, read-out: SKOV3 viability (%)): 70.9% | viability at 72 h, 0.00038147 uM ([1]; SKOV-3 cells (ovarian adenocarcinoma), conc 0.00038147 uM, raw replicate data, read-out: SKOV3 viability (%)): 75.1% | viability at 72 h, 0.000762939 uM ([1]; SKOV-3 cells (ovarian adenocarcinoma), conc 0.000762939 uM, raw replicate data, read-out: SKOV3 viability (%)): 62.9% | viability at 72 h, 0.00152588 uM ([1]; SKOV-3 cells (ovarian adenocarcinoma), conc 0.00152588 uM, raw replicate data, read-out: SKOV3 viability (%)): 110% | viability at 72 h, 0.00305176 uM ([1]; SKOV-3 cells (ovarian adenocarcinoma), conc 0.00305176 uM, raw replicate data, read-out: SKOV3 viability (%)): 70.7% | viability at 72 h, 0.00610352 uM ([1]; SKOV-3 cells (ovarian adenocarcinoma), conc 0.00610352 uM, raw replicate data, read-out: SKOV3 viability (%)): 64.7% | viability at 72 h, 0.012207 uM ([1]; SKOV-3 cells (ovarian adenocarcinoma), conc 0.012207 uM, raw replicate data, read-out: SKOV3 viability (%)): 59.4% | viability at 72 h, 0.0244141 uM ([1]; SKOV-3 cells (ovarian adenocarcinoma), conc 0.0244141 uM, raw replicate data, read-out: SKOV3 viability (%)): 57.9% | viability at 72 h, 0.0488281 uM ([1]; SKOV-3 cells (ovarian adenocarcinoma), conc 0.0488281 uM, raw replicate data, read-out: SKOV3 viability (%)): 61.1% | viability at 72 h, 0.0976562 uM ([1]; SKOV-3 cells (ovarian adenocarcinoma), conc 0.0976562 uM, raw replicate data, read-out: SKOV3 viability (%)): 61.7% | viability at 72 h, 0.195312 uM ([1]; SKOV-3 cells (ovarian adenocarcinoma), conc 0.195312 uM, raw replicate data, read-out: SKOV3 viability (%)): 59.4% | viability at 72 h, 0.390625 uM ([1]; SKOV-3 cells (ovarian adenocarcinoma), conc 0.390625 uM, raw replicate data, read-out: SKOV3 viability (%)): 59.7% | viability at 72 h, 12.5 uM ([1]; SKOV-3 cells (ovarian adenocarcinoma), conc 12.5 uM, raw replicate data, read-out: SKOV3 viability (%)): 57.5% | viability at 72 h, 25 uM ([1]; SKOV-3 cells (ovarian adenocarcinoma), conc 25 uM, raw replicate data, read-out: SKOV3 viability (%)): 54.8% | viability at 72 h, 0.78125 uM ([1]; SKOV-3 ovarian adenocarcinoma cells, conc 0.78125 uM, raw replicate data, read-out: SKOV3 viability (%)): 55.3% | viability at 72 h, 1.5625 uM ([1]; SKOV-3 ovarian adenocarcinoma cells, conc 1.5625 uM, raw replicate data, read-out: SKOV3 viability (%)): 58.8% | viability at 72 h, 3.125 uM ([1]; SKOV-3 ovarian adenocarcinoma cells, conc 3.125 uM, raw replicate data, read-out: SKOV3 viability (%)): 57.4% | viability at 72 h, 6.25 uM ([1]; SKOV-3 ovarian adenocarcinoma cells, conc 6.25 uM, raw replicate data, read-out: SKOV3 viability (%)): 63.1% | SKOV3 viability (%) ([2]; conc 9.53674e-5 uM): 85.5% and 83.5% | SKOV3 viability (%) ([2]; conc 0.000190735 uM): 77.8% | SKOV3 viability (%) ([2]; conc 0.00038147 uM): 76.1% and 77.6% | SKOV3 viability (%) ([2]; conc 0.000762939 uM): 63.5% and 66.3% | SKOV3 viability (%) ([2]; conc 0.00152588 uM): 104.6% and 106.1% | SKOV3 viability (%) ([2]; conc 0.00305176 uM): 68.3% and 63.8% | SKOV3 viability (%) ([2]; conc 0.00610352 uM): 65.9% | SKOV3 viability (%) ([2]; conc 0.012207 uM): 65.2% and 58.2% | SKOV3 viability (%) ([2]; conc 0.0244141 uM): 61.9% and 60.6% | SKOV3 viability (%) ([2]; conc 0.0488281 uM): 65.4% and 58.1% | SKOV3 viability (%) ([2]; conc 0.0976562 uM): 60.9% and 62.0% | SKOV3 viability (%) ([2]; conc 0.195312 uM): 60.7% and 56.3% | SKOV3 viability (%) ([2]; conc 0.390625 uM): 59.9% and 61.0% | SKOV3 viability (%) ([2]; conc 0.78125 uM): 54.1% and 58.4% | SKOV3 viability (%) ([2]; conc 1.5625 uM): 63.0% | SKOV3 viability (%) ([2]; conc 3.125 uM): 54.7% | SKOV3 viability (%) ([2]; conc 6.25 uM): 63.2% | SKOV3 viability (%) ([2]; conc 12.5 uM): 56.9% | SKOV3 viability (%) ([2]; conc 25 uM): 55.5% | SKOV3 viability (%) ([2]; conc 50 uM): 16.3% and 24.9% and 9.3%
